One assay has as its target T1, human ATGL (Homo sapiens, UniProt Q96AD5).
T1 construct: made in house; host or cells: Expi cells (lysate, not purified)
T1 sequence (Q96AD5 1-504): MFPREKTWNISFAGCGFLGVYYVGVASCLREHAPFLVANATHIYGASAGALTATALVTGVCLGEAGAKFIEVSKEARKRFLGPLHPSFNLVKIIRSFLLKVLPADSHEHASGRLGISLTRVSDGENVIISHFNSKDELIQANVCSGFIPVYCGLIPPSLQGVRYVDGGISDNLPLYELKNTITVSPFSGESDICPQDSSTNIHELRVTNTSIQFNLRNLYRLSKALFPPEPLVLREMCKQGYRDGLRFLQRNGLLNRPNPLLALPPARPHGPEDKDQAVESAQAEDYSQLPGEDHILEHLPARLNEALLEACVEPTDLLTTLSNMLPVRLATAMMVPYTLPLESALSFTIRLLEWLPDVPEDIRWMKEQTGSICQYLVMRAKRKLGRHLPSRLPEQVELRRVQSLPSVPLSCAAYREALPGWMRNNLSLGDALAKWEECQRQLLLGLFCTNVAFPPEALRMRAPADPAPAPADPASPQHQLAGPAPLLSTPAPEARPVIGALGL
The assay can be described thus: TG hydrolase activity, Expi cell lysates expressing human ATGL + CGI-58, radiolabelled triolein. Type of assay: biochemical. On the procedure: (§1) Triglyceride (TG) hydrolase activity was measured as previously described (Schweiger M et al., Methods in Enzymology, 2014, 538:171-93). In brief, TG hydrolase activity was determined by adding recombinant purified CGI-58 to Expi cell lysates expressing human ATGL. For determination of cross-species reactivity Expi lysates expressing ATGL from different model organisms (e.g. mouse, rat, rhesus monkey, goat, etc.) were used. Samples were incubated with DMSO (carrier) or increasing concentrations of ATGL inhibitors dissolved in DMSO. TG substrate was prepared by emulsifying 330 μM radiolabelled triolein (40,000 c.p.m./nmol) and 45 μM phosphatidylcholine/phosphatidylinositol (3:1) in 100 mM potassium phosphate buffer (pH 7.0) by sonication and adjusting to 5% essentially FA-free BSA. TG substrate was added to the reaction mixture and incubated for 1 h at 37° C. in the water bath. The reaction was terminated by adding methanol/chloroform/heptane (10:9:7) and 0.1 M potassium carbonate with 0.1 M boric acid (pH 10.5). After centrifugation at 800 g for 15 min the radioactivity in the upper phase was determined by liquid scintillation counting and the rate of FA hydrolysis was calculated. IC50 values were determined as inhibitor concentration capable of inhibiting TG hydrolase activity by 50% as compared to DMSO control. Samples were measured as duplicates. The determination of IC50 values for human ATGL is illustrated in FIG. 1.

A further assay concerns the target T2, murine ATGL (Mus musculus, UniProt Q8BJ56).
T2 construct: made in house; host or cells: Expi cells (lysate)
T2 sequence (Q8BJ56 1-486): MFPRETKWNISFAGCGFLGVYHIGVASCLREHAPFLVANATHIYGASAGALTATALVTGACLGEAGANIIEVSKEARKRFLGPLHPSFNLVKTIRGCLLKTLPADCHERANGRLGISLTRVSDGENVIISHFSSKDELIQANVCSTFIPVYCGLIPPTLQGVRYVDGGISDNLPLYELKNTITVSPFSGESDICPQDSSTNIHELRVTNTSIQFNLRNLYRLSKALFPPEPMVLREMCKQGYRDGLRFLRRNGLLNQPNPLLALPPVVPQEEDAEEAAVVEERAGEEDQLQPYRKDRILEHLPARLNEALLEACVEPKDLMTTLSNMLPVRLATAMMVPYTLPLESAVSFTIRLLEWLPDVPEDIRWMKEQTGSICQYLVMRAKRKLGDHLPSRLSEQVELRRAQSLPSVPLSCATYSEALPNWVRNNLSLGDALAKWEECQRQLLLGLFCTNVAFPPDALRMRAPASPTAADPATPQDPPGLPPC
Briefly: TG hydrolase activity, Expi lysates expressing mouse ATGL + CGI-58, radiolabelled triolein. The class given is biochemical. How it is done: as §1
Lysates from Expi cells overexpressing ATGL from mouse (Mus musculus) were incubated with recombinant purified ATGL co-activator CGI-58 and ATGL inhibitors at 50 μM. Subsequently, substrate containing radiolabeled triolein was added and liberated FA were extracted and quantified by liquid scintillation. Inhibitors were dissolved in DMSO which was used as control. Samples were measured in triplicates.

The mark [1] stands for this setting: values of text and figure legend, read-out: IC50 on human ATGL (hATGL).
Setting [2] is: Example 237, read-out: Inhibition of human ATGL − IC50.
[3] abbreviates: 50 μM compound, Example 237, read-out: Inhibition of murine ATGL at 50 μM − mean [%].
Where [4] appears, read: Example 238, read-out: Inhibition of human ATGL IC50.
The mark [5] stands for this setting: 50 μM, Example 238, read-out: % Inhibition of murine ATGL at 50 μM.

Like-named read-outs stand apart in the source and are kept apart here. Where only a bound is given, the exact number is not on record here.

The source of these data is patent publication US20220289698A1, “INHIBITORS OF HUMAN ATGL” (Karl-Franzens-Universität Graz, priority 2019, published 2022).

By IC50 is commonly meant the concentration needed to halve the response being measured. In the case of `CCOC(=O)c1cn(-c2ccc(OCC)cc2)cn1` [AM-30, reference compound], the half-inhibitory concentration (IC50) on human ATGL (setting [1]) was at least 200 µM.

Take `CCOC(=O)c1cnc(-c2ccc(OCC)cc2)s1` [AM-52, reference compound]: the IC50 at human ATGL (setting [1]) is above 200 µM.

`CCOC(=O)c1cc(-c2ccc(OCC)cc2)no1` [AMU-4-245, reference compound]: at human ATGL (setting [1]), the IC50 is at least 200 µM.

For `CCOC(=O)c1cc(-c2ccc(OCC)cc2)ns1` [AMU-27, reference compound], at human ATGL (setting [1]), the IC50 is at least 200 µM.

Turning to `COCOc1ccc(-c2cccc(C(=O)OC(C)C)n2)cc1` [Example 13], the IC50 at human ATGL (setting [2]) was determined as 8 µM.

The term inhibition denotes how much of the control response was suppressed. In the case of `CC(C)OC(=O)c1cccc(-c2ccccc2)n1` [Example 24], at human ATGL (setting [2]), the half-maximal inhibitory concentration (IC50) amounted to 25 µM. At murine ATGL (setting [3]), the inhibition at 50 µM is 38%.

For `CC(C)OC(=O)c1cccc(-c2ccc(F)cc2)n1` [Example 25], the half-inhibitory concentration (IC50) on human ATGL (setting [2]) came out at 8 µM. Also, on murine ATGL (setting [3]), the inhibition at 50 µM turned out to be 10.9%.

Regarding `CC(C)OC(=O)c1cccc(-c2ccc(C(=O)N(C)C)cc2)n1` [Example 42], the 50% inhibitory concentration (IC50) on human ATGL (setting [2]) came out at 10 µM. Moreover, the inhibition at 50 µM at murine ATGL (setting [3]) came out at 6.2%.

On to `CCOC(=O)c1cccc(-c2ccc(C(C)OC)cc2)n1` (stereo not drawn) [Example 45], for which the IC50 at human ATGL (setting [2]) stood at 10 µM.

Take `C#CC(C)OC(=O)c1cc(OC)cc(-c2ccc(CCC)cc2)n1` (stereo not drawn) [Example 54]: the half-maximal inhibitory concentration (IC50) at human ATGL (setting [2]) is 20 µM. Also, the inhibition at 50 µM at murine ATGL (setting [3]) was 0%.

As to `CCC(C)c1ccc(-c2cc(OC)cc(C(=O)OC(C)C)n2)cc1` (stereo not drawn) [Example 56], the IC50 at human ATGL (setting [2]) worked out at 7 µM. Besides, the inhibition at 50 µM at murine ATGL (setting [3]) is 0%.

On to `CCCCc1ccc(-c2cc(OC)cc(C(=O)OC(C)C)n2)cc1` [Example 57], for which, at human ATGL (setting [2]), the IC50 was found to be 2 µM.

For `COc1cc(C(=O)OC(C)C)nc(-c2ccc(C(C)OC)cc2)c1` (stereo not drawn) [Example 62], the IC50 on human ATGL (setting [2]) amounted to 2 µM.

`CON(C)C(=O)c1ccc(-c2cccc(C(=O)OC(C)C)n2)cc1` [Example 77]: the concentration for half-maximal inhibition (IC50) on human ATGL (setting [2]) amounted to 5 µM. At murine ATGL (setting [3]), the inhibition at 50 µM turned out to be 0%.

As for `CC(C)OC(=O)c1cccc(CCc2ccccc2)n1` [Example 80], at human ATGL (setting [2]), the IC50 turned out to be 50 µM. In addition, the inhibition at 50 µM at murine ATGL (setting [3]) came to 3.4%.

On to `CC(C)OC(=O)c1cccc(OCCc2ccccc2)n1` [Example 91], for which the IC50 at human ATGL (setting [2]) came to 50 µM.

Turning to `CCOC(=O)c1cccc(-c2ccc(COC(C)=O)cc2)n1` [Example 93], the IC50 at human ATGL (setting [2]) is 20 µM.

For `CC(C)OC(=O)c1cccc(-c2ccc(OC(C)C)cc2)n1` [Example 95], the half-maximal inhibitory concentration (IC50) on human ATGL (setting [2]) amounted to 3 µM. Further, the inhibition at 50 µM at murine ATGL (setting [3]) was 13.1%.

As for `CC(C)OC(=O)c1ccc(-c2cccc(C(=O)OC(C)C)n2)cc1` [Example 97], on human ATGL (setting [2]), the 50% inhibitory concentration (IC50) is 20 µM.

In the case of `CCOC(=O)c1csc(-c2ccc(SCC)cc2)n1` [Example 98, Ethyl 2-(4-(ethylthio)phenyl)thiazole-4-carboxylate], the IC50 at human ATGL (setting [2]) amounted to 12 µM. In addition, the inhibition at 50 µM at murine ATGL (setting [3]) was determined as 0%.

For the molecule `C#CCOC(=O)c1csc(-c2ccc(OCC)cc2)n1` [Example 149, Prop-2-yn-1-yl 2-(4-ethoxyphenyl)thiazole-4-carboxylate], the half-maximal inhibitory concentration (IC50) on human ATGL (setting [2]) worked out at 3 µM.

With `CCC/C=C/COC(=O)c1csc(-c2ccc(OCC)cc2)n1` [Example 155, (E)-Hex-2-en-1-yl 2-(4-ethoxyphenyl)thiazole-4-carboxylate], the 50% inhibitory concentration (IC50) on human ATGL (setting [2]) worked out at 15 µM.

Regarding `CCCCCCOC(=O)c1csc(-c2ccc(OCC)cc2)n1` [Example 156, Hexyl 2-(4-ethoxyphenyl)thiazole-4-carboxylate], on human ATGL (setting [2]), the 50% inhibitory concentration (IC50) amounted to 15 µM.

Turning to `CCOc1ccc(-c2nc(C(=O)OCc3ccccc3)cs2)cc1` [Example 158, Benzyl 2-(4-ethoxyphenyl)thiazole-4-carboxylate], on human ATGL (setting [2]), the concentration for half-maximal inhibition (IC50) is 15 µM.

As to `CCOc1ccc(-c2nc(C(=O)OCc3ccncc3)cs2)cc1` [Example 159, Pyridin-4-ylmethyl 2-(4-ethoxyphenyl)thiazole-4-carboxylate], at human ATGL (setting [2]), the IC50 is 20 µM.

As for `CCOc1ccc(-c2nc(C(=O)OCc3cccnc3)cs2)cc1` [Example 160, Pyridin-3-ylmethyl 2-(4-ethoxyphenyl)thiazole-4-carboxylate], the half-maximal inhibitory concentration (IC50) at human ATGL (setting [2]) was found to be 15 µM.

Take `CCOC(=O)c1nc(-c2ccc(OCC)cc2)sc1Br` [Example 164, Ethyl 5-bromo-2-(4-ethoxyphenyl)thiazole-4-carboxylate]: the IC50 on human ATGL (setting [2]) is 25 µM.

With `CCOC(=O)c1nc(-c2ccc(OCC)cc2)sc1I` [Example 165, Ethyl 2-(4-ethoxyphenyl)-5-iodothiazole-4-carboxylate], the IC50 on human ATGL (setting [2]) came out at 5 µM.

`CCOc1ccc(-c2nc(C(=O)OC(C)(C)C)c(N3CCCCC3)s2)cc1` [Example 167, tert-Butyl 2-(4-ethoxyphenyl)-5-(piperidin-1-yl)thiazole-4-carboxylate]: the IC50 at human ATGL (setting [2]) stood at 10 µM.

As to `CCOc1ccc(-c2nc(C(=O)OC(C)(C)C)c(C(C)=O)s2)cc1` [Example 171, tert-Butyl 5-acetyl-2-(4-ethoxyphenyl)thiazole-4-carboxylate], the IC50 on human ATGL (setting [2]) was found to be 5 µM.

`CCOC(=O)c1nc(-c2ccc(OCC)cc2)sc1C(C)=O` [Example 172, Ethyl 5-acetyl-2-(4-ethoxyphenyl)thiazole-4-carboxylate]: the IC50 on human ATGL (setting [2]) was found to be 20 µM.

Consider `CCOc1ccc(-c2nc(C(=O)OC(C)(C)C)c(C(=O)C(C)C)s2)cc1` [Example 173, tert-Butyl 2-(4-ethoxyphenyl)-5-isobutyrylthiazole-4-carboxylate], for which the 50% inhibitory concentration (IC50) on human ATGL (setting [2]) came out at 12 µM.

For `CCOc1ccc(-c2nc(C(=O)OC(C)(C)C)c(C(=O)C3CC3)s2)cc1` [Example 174, tert-Butyl 5-(cyclopropanecarbonyl)-2-(4-ethoxyphenyl)thiazole-4-carboxylate], the concentration for half-maximal inhibition (IC50) on human ATGL (setting [2]) came out at 25 µM.

In the case of `CCOc1ccc(-c2nc(C(=O)OCc3cocn3)cs2)cc1` [Example 218, Oxazol-4-ylmethyl 2-(4-ethoxyphenyl)thiazole-4-carboxylate], the IC50 on human ATGL (setting [4]) is 20 µM.

As for `CCOc1ccc(-c2nc(C(=O)OCc3cnco3)cs2)cc1` [Example 220], on human ATGL (setting [4]), the IC50 amounted to 30 µM.

Consider `CCOc1ccc(-c2nc(C(=O)OC(C)c3nccs3)cs2)cc1` (stereo not drawn) [Example 225, 1-(Thiazol-2-yl)ethyl 2-(4-ethoxyphenyl)thiazole-4-carboxylate], for which the inhibition at 50 µM on murine ATGL (setting [5]) was 68%.

Regarding `CCOC(=O)c1nc(-c2ccc(OCC)cc2)sc1C(C)C` [Example 227, Ethyl 2-(4-ethoxyphenyl)-5-isopropylthiazole-4-carboxylate], on murine ATGL (setting [5]), the inhibition at 50 µM amounted to 44%.

Take `COc1ccc(-c2nc(C(=O)OCc3ccsc3)cs2)cc1` [Example 231, Thiophen-3-ylmethyl 2-(4-methoxyphenyl)thiazole-4-carboxylate]: the IC50 at human ATGL (setting [4]) was 30 µM.

`CCCOc1ccc(-c2nc(C(=O)OCc3ccsc3)cs2)cc1` [Example 232, Thiophen-3-ylmethyl 2-(4-propoxyphenyl)thiazole-4-carboxylate]: at human ATGL (setting [4]), the IC50 came to 12 µM.

Regarding `CC(C)Oc1ccc(-c2nc(C(=O)OCc3ccsc3)cs2)cc1` [Example 233, Thiophen-3-ylmethyl 2-(4-Isopropoxyphenyl)thiazole-4-carboxylate], on human ATGL (setting [4]), the IC50 was found to be 10 µM.

`CCOc1ccc(-c2ccc(C)c(C(=O)OC(C)C)n2)cc1` [NG-469, reference compound]: the 50% inhibitory concentration (IC50) at human ATGL (setting [1]) is above 200 µM.

Take `CN(C)C(=O)Nc1cccc(-c2ccc(N(C)C)cc2)c1` [atglistatin, reference compound]: the IC50 on human ATGL (setting [1]) was above 200 µM.
